Data on 13 compounds can be found in PubChem BioAssay (NCI).

Molecules are shown by their SMILES.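 Method: 48-hour compound exposure of cells in 96-well plates, five concentrations, linear interpolation of endpoints. The concentration for 50% growth inhibition is given as GI50. Definition used: TGI = concentration required for complete inhibition of growth.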

Some test systems named below: SF-295 CNS; OVCAR-5 ovarian; HL-60(TB) leukemia; COLO 205 colon; HOP-92 NSCLC; NCI-H226 lung; CAKI-1 renal; SK-MEL-28 melanoma; HCT-116 colon; A498 renal.
What all share (assay): NCI-60 cell line screen, 48 h

As to `N#C/C(=C/c1ccsc1)C(=O)c1ccccc1`, the TGI in the assay with SF-295 CNS, in the assay with OVCAR-5 ovarian, with HL-60(TB) leukemia, in the assay on COLO 205 colon, in the assay with HOP-92 NSCLC and in the assay on NCI-H226 lung was more than 100 µM throughout. In addition, the TGI with CAKI-1 renal, in the assay on SK-MEL-28 melanoma and with HCT-116 colon was more than 100 µM each time.
With `CCCCNC1=C(C(=O)OCC)C(=O)CO1`, the TGI in the assay with SF-295 CNS, in the assay with OVCAR-5 ovarian, in the assay with HL-60(TB) leukemia, in the assay on COLO 205 colon, in the assay with NCI-H226 lung and in the assay with CAKI-1 renal was more than 100 µM throughout. The same compound registered a TGI in the assay on SK-MEL-28 melanoma of more than 100 µM.
`CN(C(=O)C12C3C4C1C1C2C3C41C(=O)C(C)(C)C)C(C)(C)C` (stereo not given): the TGI with SF-295 CNS, in the assay with OVCAR-5 ovarian, with HL-60(TB) leukemia, with COLO 205 colon, in the assay with CAKI-1 renal and in the assay with A498 renal was more than 100 µM each time. For the same compound, the TGI with SK-MEL-28 melanoma and in the assay on HCT-116 colon was more than 100 µM throughout.
In the case of `CSc1ccc(C2=NN(C(C)=O)C(c3cc(C)cs3)C2)cc1` (stereo not given), the GI50 in the assay on SF-295 CNS was 22.4 µM; with OVCAR-5 ovarian, 44.4 µM; in the assay with HL-60(TB) leukemia, 11.8 µM; in the assay with COLO 205 colon, 17.3 µM; in the assay with HOP-92 NSCLC, 21.6 µM; in the assay with NCI-H226 lung, 21.8 µM. For the same compound, the results for the GI50 in the assay on CAKI-1 renal, in the assay on SK-MEL-28 melanoma and in the assay on HCT-116 colon were 28.4 µM, 37 µM and 20.4 µM, respectively. Also, the TGI with SF-295 CNS was more than 100 µM; in the assay with OVCAR-5 ovarian, more than 100 µM; in the assay with HL-60(TB) leukemia, 29.8 µM; in the assay with COLO 205 colon, 35.8 µM; with HOP-92 NSCLC, 90.1 µM; with NCI-H226 lung it was more than 100 µM. The results for the TGI in the assay on CAKI-1 renal, in the assay on SK-MEL-28 melanoma and in the assay with HCT-116 colon were more than 100 µM, more than 100 µM and 66.1 µM, respectively.
For `COc1ccc2c(c1)c(-c1nc(-c3cn(C)c4ncccc34)cs1)cn2CCCN1CCCCC1`, the GI50 with SF-295 CNS is 1.71 µM; in the assay with OVCAR-5 ovarian, 1.64 µM; in the assay with HL-60(TB) leukemia it was 1.81 µM; in the assay on HOP-92 NSCLC, 1.67 µM; with A498 renal it was 2.4 µM; in the assay on SK-MEL-28 melanoma, 1.76 µM. For the same compound, the GI50 in the assay on HCT-116 colon is 1.68 µM. The TGI turned out to be 3.18 µM with SF-295 CNS; 3.25 µM in the assay on OVCAR-5 ovarian; 3.62 µM with HL-60(TB) leukemia; 3.24 µM in the assay with HOP-92 NSCLC; 6.22 µM with A498 renal; 3.29 µM with SK-MEL-28 melanoma. Further, the TGI in the assay on HCT-116 colon is 3.05 µM.
For the compound `CC1(C)CC(/C=C2/OC(=O)c3ccccc32)=C(C#N)C(=O)O1`, the TGI with SF-295 CNS, in the assay on OVCAR-5 ovarian, with COLO 205 colon, with NCI-H226 lung, in the assay with CAKI-1 renal and in the assay on SK-MEL-28 melanoma was more than 100 µM each time. The same compound showed a TGI with HCT-116 colon of more than 100 µM.
With `COc1ccc2cc1Oc1ccc(cc1)CC1c3cc(c(OC)cc3CCN1C)Oc1c3c(cc4c1C(C2)N(C)CC4)OCO3` (stereo not given), the TGI in the assay with SF-295 CNS is 21.9 µM; in the assay with OVCAR-5 ovarian, 32.4 µM; with HL-60(TB) leukemia, 6.66 µM; in the assay on COLO 205 colon, 18.4 µM; with NCI-H226 lung, 7.45 µM; with SK-MEL-28 melanoma, 12.1 µM. Moreover, the TGI in the assay with HCT-116 colon came out at 26.8 µM.
For the compound `COc1cc(C2c3cc4c(cc3C(NCC(O)CO)C3COC(=O)[C@H]23)OCO4)cc(OC)c1OC` (stereo not given in full), the TGI in the assay with OVCAR-5 ovarian is more than 100 µM; in the assay with HL-60(TB) leukemia it was 0.543 µM; in the assay with COLO 205 colon, 0.364 µM; in the assay on NCI-H226 lung, 0.655 µM; in the assay with SK-MEL-28 melanoma it was more than 100 µM.
With `CC1(Cl)C(=O)NC(=O)N(C2CC(N=[N+]=[N-])C(CO)O2)C1N=[N+]=[N-]` (stereo not given), the TGI in the assay with SF-295 CNS, with OVCAR-5 ovarian, with HL-60(TB) leukemia, in the assay with COLO 205 colon, in the assay on HOP-92 NSCLC and in the assay with CAKI-1 renal was more than 100 µM each time. In addition, the TGI in the assay on A498 renal and in the assay on SK-MEL-28 melanoma was more than 100 µM each time.
As for `Cc1ccc(-c2c3c([nH]c(=O)c2C#N)-c2cc(F)ccc2OC3)cc1`, the GI50 in the assay with SF-295 CNS is 23.9 µM; with OVCAR-5 ovarian, more than 100 µM; in the assay with HL-60(TB) leukemia, 96.6 µM; in the assay on COLO 205 colon, more than 100 µM; in the assay with HOP-92 NSCLC, more than 100 µM; in the assay on CAKI-1 renal, 82.1 µM. Besides, the GI50 in the assay on A498 renal and with SK-MEL-28 melanoma was more than 100 µM in each case. Besides, the TGI with SF-295 CNS was 76.6 µM; in the assay on OVCAR-5 ovarian, more than 100 µM; in the assay on HL-60(TB) leukemia it was more than 100 µM; with COLO 205 colon it was more than 100 µM; in the assay on HOP-92 NSCLC it was more than 100 µM; with CAKI-1 renal it was more than 100 µM. The TGI in the assay with A498 renal and in the assay with SK-MEL-28 melanoma was more than 100 µM in each case.
In the case of `O=C(c1ccco1)c1nc2ccc(C(F)(F)F)cc2[n+]([O-])c1C(F)(F)F`, the GI50 in the assay on SF-295 CNS was 53.2 µM; in the assay on OVCAR-5 ovarian, more than 100 µM; in the assay on HL-60(TB) leukemia, 95.2 µM; in the assay with COLO 205 colon it was 77.8 µM; with NCI-H226 lung, 53.9 µM; in the assay with CAKI-1 renal, 31 µM. The figures for the GI50 with A498 renal, with SK-MEL-28 melanoma and with HCT-116 colon were 33.7 µM, 23.5 µM and more than 100 µM, respectively. The TGI with SF-295 CNS, in the assay on OVCAR-5 ovarian, in the assay with HL-60(TB) leukemia, in the assay with COLO 205 colon, in the assay on NCI-H226 lung and in the assay with CAKI-1 renal was more than 100 µM each time. The TGI in the assay with A498 renal, with SK-MEL-28 melanoma and in the assay on HCT-116 colon was more than 100 µM in each case.
Regarding `O=C1OCc2c1cc1ccc(O)c(OC3OC(CO)C(O)C(O)C3O)c1c2-c1ccc2c(c1)OCO2` (stereo not given), the TGI with SF-295 CNS, in the assay on OVCAR-5 ovarian, in the assay on COLO 205 colon, in the assay on NCI-H226 lung, in the assay on CAKI-1 renal and with A498 renal was more than 100 µM in each case. The TGI in the assay on SK-MEL-28 melanoma and in the assay on HCT-116 colon was more than 100 µM in each case. Further, the results for the GI50 in the assay on NCI-H226 lung and with HCT-116 colon were 48.4 µM and 39.7 µM, respectively.
As for `COC(=O)CC(=O)C[P+](c1ccccc1)(c1ccccc1)c1ccccc1`, the TGI was more than 218 µM with SF-295 CNS; 149 µM in the assay on HL-60(TB) leukemia; more than 218 µM with COLO 205 colon; more than 218 µM in the assay on HOP-92 NSCLC; more than 218 µM with NCI-H226 lung; more than 218 µM in the assay on CAKI-1 renal. The TGI in the assay with SK-MEL-28 melanoma and in the assay on HCT-116 colon was more than 218 µM in each case.
